Consider 16 compounds from PubChem BioAssay (NCI).

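A five-concentration, 48-hour dose response in 96-well plates underlies each endpoint, interpolated linearly between surrounding concentrations. Definition used: TGI = concentration required for complete inhibition of growth.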

Among the test systems are HOP-92 NSCLC; IGROV1 ovarian; HOP-62 NSCLC; A549 NSCLC; U251 CNS; COLO 205 colon; HCT-15 colon; K-562 leukemia; PC-3 prostate; MDA-MB-435.
Holding throughout (assay): NCI tumour cell line growth inhibition, 48 h

On to `C=C1CN2CCc3c([nH]c4ccccc34)C2CC1CC(=O)N(C)C` (stereo unspecified), for which the TGI in the assay with HOP-92 NSCLC, in the assay on IGROV1 ovarian, in the assay with HOP-62 NSCLC, in the assay on A549 NSCLC, with U251 CNS and in the assay on COLO 205 colon was greater than 309 µM in each case. For the same compound, the TGI in the assay with HCT-15 colon and with K-562 leukemia was greater than 309 µM each time.
With `CC1CCc2c(sc3ncnc(N/N=C/c4ccc(Cl)cc4)c23)C1` (stereo unspecified), the TGI in the assay on IGROV1 ovarian, in the assay on HOP-62 NSCLC, in the assay on A549 NSCLC, with U251 CNS, in the assay with COLO 205 colon and in the assay with HCT-15 colon was greater than 100 µM throughout. The compound also displayed a TGI with K-562 leukemia of 48.1 µM.
In the case of `CC(C)[Si](Oc1ccc(CC2N(C(=O)c3ccc([N+](=O)[O-])cc3)C(CCc3ccccc3)CC2(C)C=O)cc1)(C(C)C)C(C)C` (stereo unspecified), the TGI with HOP-92 NSCLC is 82.8 µM; in the assay with IGROV1 ovarian it was greater than 100 µM; in the assay with HOP-62 NSCLC, 31.5 µM; with PC-3 prostate, greater than 100 µM; in the assay on U251 CNS, greater than 100 µM; in the assay on COLO 205 colon, greater than 100 µM. This compound also registered a TGI in the assay on HCT-15 colon greater than 100 µM.
Regarding `CC(=O)OCC1OC(O[C@H]2C=C[C@@H](C(=O)OCc3ccccc3)n3c(=O)n(-c4ccccc4)c(=O)n32)C(OC(C)=O)C(OC(C)=O)C1OC(C)=O` (stereo partly specified), the TGI in the assay on HOP-92 NSCLC was 3.9 µM; in the assay on IGROV1 ovarian, 6.13 µM; in the assay with MDA-MB-435, 4.45 µM; in the assay on PC-3 prostate, 13 µM; with A549 NSCLC, 35.3 µM; in the assay on U251 CNS, 4.81 µM. The TGI with COLO 205 colon stood at 8.75 µM; with HCT-15 colon, 2.44 µM; in the assay with K-562 leukemia, 8.72 µM.
Take `Cc1cc(N=Cc2c(CO)cnc(C)c2O)c(N=Cc2c(CO)cnc(C)c2O)cc1C`: the TGI in the assay on IGROV1 ovarian, in the assay on HOP-62 NSCLC, in the assay with MDA-MB-435, in the assay on PC-3 prostate, in the assay with A549 NSCLC and with U251 CNS was greater than 100 µM each time. Further, the TGI in the assay on COLO 205 colon, with HCT-15 colon and in the assay with K-562 leukemia was greater than 100 µM throughout.
As to `CC(C)CC1N=C(OCc2ccccc2)OC1=O` (stereo unspecified), the TGI with HOP-92 NSCLC, in the assay with IGROV1 ovarian, with HOP-62 NSCLC, with MDA-MB-435, with PC-3 prostate and in the assay on A549 NSCLC was greater than 100 µM each time. Moreover, the TGI with U251 CNS, in the assay with HCT-15 colon and with K-562 leukemia was greater than 100 µM throughout.
On to `Cn1c(=O)n(C2(C)CSC2)c2ccccc21`, for which the TGI in the assay on HOP-92 NSCLC, in the assay on IGROV1 ovarian, in the assay with HOP-62 NSCLC, with A549 NSCLC, with U251 CNS and in the assay with COLO 205 colon was greater than 100 µM in each case. For the same compound, the TGI in the assay with HCT-15 colon and in the assay with K-562 leukemia was greater than 100 µM in each case.
Consider `N#C/C(=C\c1ccc[nH]1)C(=O)c1ccccc1`, for which the TGI in the assay on HOP-92 NSCLC, in the assay on HOP-62 NSCLC, with A549 NSCLC, with U251 CNS, with COLO 205 colon and in the assay with HCT-15 colon was greater than 100 µM throughout. In the assay with K-562 leukemia, the TGI was greater than 100 µM.
Consider `O=C(O)c1ccc(Nc2cnc3cc(C(F)(F)F)ccc3n2)cc1`, for which the TGI in the assay on IGROV1 ovarian, with HOP-62 NSCLC, in the assay on MDA-MB-435, in the assay on PC-3 prostate, in the assay with A549 NSCLC and with U251 CNS was greater than 100 µM throughout. The TGI in the assay on COLO 205 colon is greater than 100 µM; with HCT-15 colon it was 83.5 µM; in the assay on K-562 leukemia it was greater than 100 µM.
With `COc1ccc(-c2cc(=O)c3cc(O)ccc3o2)c(OC)c1OC`, the TGI with HOP-92 NSCLC is 98 µM; with IGROV1 ovarian it was greater than 100 µM; with HOP-62 NSCLC, greater than 100 µM; in the assay on A549 NSCLC, greater than 100 µM; in the assay with COLO 205 colon, greater than 100 µM; in the assay on HCT-15 colon it was greater than 100 µM. The TGI with K-562 leukemia is greater than 100 µM.
Regarding `COCCCNc1c2ccccc2nc2ccccc12`, the TGI in the assay with HOP-92 NSCLC stood at 12.5 µM; with IGROV1 ovarian it was 22.9 µM; with HOP-62 NSCLC, 12.2 µM; in the assay with MDA-MB-435, 12.7 µM; in the assay on PC-3 prostate, 5.68 µM; in the assay on A549 NSCLC, 14 µM. The values for the TGI with COLO 205 colon, in the assay with HCT-15 colon and in the assay with K-562 leukemia were 6.73 µM, 3.38 µM and 23.6 µM, respectively.
Take `COc1cccc(/C=N/[N-]C(N)=O)c1[O-].[Co+2].[OH3+].c1ccncc1`: the TGI in the assay with HOP-92 NSCLC, in the assay on IGROV1 ovarian, in the assay with HOP-62 NSCLC, with A549 NSCLC, in the assay with U251 CNS and in the assay with COLO 205 colon was greater than 100 µM throughout. This compound returned a TGI in the assay on HCT-15 colon greater than 100 µM.
For the compound `CCOC(=O)CC1Nc2ccccc2C12CCc1c([nH]c3ccccc13)C2C(=O)OCC` (stereo unspecified), the TGI in the assay on IGROV1 ovarian was 61.7 µM; in the assay with HOP-62 NSCLC, greater than 100 µM; with MDA-MB-435, greater than 100 µM; in the assay with PC-3 prostate, greater than 100 µM; in the assay with A549 NSCLC it was greater than 100 µM; in the assay with U251 CNS, greater than 100 µM. The TGI with COLO 205 colon was 22.4 µM; in the assay on HCT-15 colon, greater than 100 µM; in the assay on K-562 leukemia it was greater than 100 µM.
Regarding `COc1cc(C(c2ccc3c(c2)OCO3)C2SCCCS2)cc(OC)c1OC` (stereo unspecified), the TGI in the assay with IGROV1 ovarian is 8.17 µM; with HOP-62 NSCLC it was greater than 100 µM; in the assay on PC-3 prostate, greater than 100 µM; in the assay on A549 NSCLC, 53.3 µM; in the assay on U251 CNS it was 21.5 µM; in the assay with COLO 205 colon, 3.08 µM. For the same compound, the TGI was 6.58 µM in the assay with HCT-15 colon and 4.73 µM in the assay with K-562 leukemia.
Turning to `O=C1N[C@H](C(=O)O)[C@@H](c2ccc(OCc3ccccc3)cc2)O1`, the TGI is 78.6 µM with IGROV1 ovarian; 33.2 µM with HOP-62 NSCLC; greater than 100 µM with MDA-MB-435; greater than 100 µM with PC-3 prostate; greater than 100 µM in the assay on A549 NSCLC; greater than 100 µM with U251 CNS. In addition, the TGI with COLO 205 colon, in the assay with HCT-15 colon and in the assay on K-562 leukemia was greater than 100 µM throughout.
On to `Cc1c(C#N)c2nc3ccccc3n2c(=O)/c1=C/Nc1ccc(Cl)cc1`, for which the TGI is 67.5 µM in the assay on HOP-92 NSCLC; greater than 100 µM in the assay on IGROV1 ovarian; 33.1 µM with HOP-62 NSCLC; greater than 100 µM in the assay with MDA-MB-435; greater than 100 µM in the assay on A549 NSCLC; 24.6 µM with U251 CNS. Also, the TGI in the assay with COLO 205 colon, in the assay with HCT-15 colon and in the assay on K-562 leukemia was greater than 100 µM in each case.
